Measurements: PMC4648050, “Discovery of Inhibitors of Trypanosoma brucei by Phenotypic Screening of a Focused Protein Kinase Library” (Chemmedchem, 2015)
Where two headings read alike, the source gives them in different places.

Experiments:
JNK2 = JNK2 (Homo sapiens, UniProt P45984); assay: Kinase panel: JNK2; type: biochemical, human/mammalian; settings: compound at 10 μM, read-out: % of activity respect of the control
Protocol: (§1) The DDU kinase-focused compound set contains lead-like scaffolds that are designed to target protein kinases; they have kinase hinge binding motifs. Four of the 1H-imidazopyrazinones were screened against a human/mammalian kinase panel at the University of Dundee (http://www.kinase-screen.mrc.ac.uk) at a concentration of 10 μM. At the time of testing the panel contained 79 mammalian kinases selected to provide a broad coverage of the mammalian kinome (∼500 kinases in the human genome).[3] None of the compounds were active against any of the kinases at 10 μM.

MARK3 = MARK3 (Homo sapiens, UniProt P27448); assay: Kinase panel: MARK3; type: biochemical, human/mammalian; settings: compound at 10 μM, read-out: % of activity respect of the control
Sequence of MARK3 (P27448 whole entry): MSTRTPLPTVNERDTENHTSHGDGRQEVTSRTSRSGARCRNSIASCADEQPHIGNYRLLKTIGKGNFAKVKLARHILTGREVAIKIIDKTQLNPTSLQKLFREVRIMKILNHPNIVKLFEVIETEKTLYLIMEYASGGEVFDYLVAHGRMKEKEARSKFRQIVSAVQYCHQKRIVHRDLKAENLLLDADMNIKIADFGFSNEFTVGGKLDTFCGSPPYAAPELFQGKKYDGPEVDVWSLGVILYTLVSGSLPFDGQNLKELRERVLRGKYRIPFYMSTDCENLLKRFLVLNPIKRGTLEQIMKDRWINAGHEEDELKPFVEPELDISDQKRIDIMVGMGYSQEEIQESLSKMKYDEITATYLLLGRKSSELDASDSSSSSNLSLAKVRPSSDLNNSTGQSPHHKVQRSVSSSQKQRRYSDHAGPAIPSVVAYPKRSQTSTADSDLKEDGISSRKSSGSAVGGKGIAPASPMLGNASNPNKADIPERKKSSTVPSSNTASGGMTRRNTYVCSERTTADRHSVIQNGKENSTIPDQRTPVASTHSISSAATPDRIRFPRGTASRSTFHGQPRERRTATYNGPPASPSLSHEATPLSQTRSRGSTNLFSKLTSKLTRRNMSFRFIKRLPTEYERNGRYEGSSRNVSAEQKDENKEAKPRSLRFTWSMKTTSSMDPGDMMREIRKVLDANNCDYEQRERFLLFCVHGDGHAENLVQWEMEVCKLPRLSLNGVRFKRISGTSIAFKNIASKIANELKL
Protocol: as §1

T. b. brucei = assay: Trypanosome proliferation assay; type: cell-based, Trypanosoma brucei brucei; settings: geometric mean of two or more determinations, standard cell viability (resazurin) assay, read-out: EC50 T. b. brucei
Protocol: Trypanosome and MRC5 proliferation assay: Measurement of inhibition of the proliferation of MRC5 cells (human lung fibroblasts) and T. brucei bloodstream-stage cells was performed using a modification of a cell viability assay previously described.[35, 36] Compounds ([…] to 0.5 nM) were incubated with 2×10^3 cells per well in 0.2 mL of the appropriate culture medium (MEM with 10 % foetal bovine serum for MRC5 cells) in clear 96-well plates. Plates were incubated at 37 °C in the presence of 5 % CO2 for 69 h. Resazurin was then added to a final concentration of 50 μM, and plates were incubated as above for a further 4 h before being read on a BioTek Flx800 fluorescence plate reader.

RSK2 = RSK2 (Homo sapiens, UniProt P51812); assay: Kinase panel: RSK2; type: biochemical, human/mammalian; settings: compound at 10 μM, read-out: % of activity respect of the control
Sequence of RSK2 (P51812 whole entry): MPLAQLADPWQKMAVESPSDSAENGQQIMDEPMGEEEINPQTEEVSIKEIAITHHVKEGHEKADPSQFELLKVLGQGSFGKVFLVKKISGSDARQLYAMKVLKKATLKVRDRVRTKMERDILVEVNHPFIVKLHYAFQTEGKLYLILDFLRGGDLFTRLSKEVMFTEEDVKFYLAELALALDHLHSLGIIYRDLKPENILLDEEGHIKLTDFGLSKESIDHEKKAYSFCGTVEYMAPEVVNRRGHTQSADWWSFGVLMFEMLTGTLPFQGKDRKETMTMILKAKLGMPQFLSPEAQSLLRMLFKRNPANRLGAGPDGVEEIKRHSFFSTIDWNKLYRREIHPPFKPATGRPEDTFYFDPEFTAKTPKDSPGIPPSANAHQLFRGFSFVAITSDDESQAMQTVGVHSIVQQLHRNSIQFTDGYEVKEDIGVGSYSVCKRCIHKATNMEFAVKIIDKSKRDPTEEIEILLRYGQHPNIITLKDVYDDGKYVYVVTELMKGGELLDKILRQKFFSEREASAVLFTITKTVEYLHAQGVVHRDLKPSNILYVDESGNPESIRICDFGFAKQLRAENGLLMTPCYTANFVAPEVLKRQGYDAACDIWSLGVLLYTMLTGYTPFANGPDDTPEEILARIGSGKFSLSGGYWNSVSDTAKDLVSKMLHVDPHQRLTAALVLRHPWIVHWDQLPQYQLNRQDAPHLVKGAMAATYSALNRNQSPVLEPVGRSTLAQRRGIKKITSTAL
Protocol: as §1

CK2 = CK2 (Homo sapiens, UniProt P68400); assay: Kinase panel: CK2; type: biochemical, human/mammalian; settings: compound at 10 μM, read-out: % of activity respect of the control
Sequence of CK2 (P68400 whole entry): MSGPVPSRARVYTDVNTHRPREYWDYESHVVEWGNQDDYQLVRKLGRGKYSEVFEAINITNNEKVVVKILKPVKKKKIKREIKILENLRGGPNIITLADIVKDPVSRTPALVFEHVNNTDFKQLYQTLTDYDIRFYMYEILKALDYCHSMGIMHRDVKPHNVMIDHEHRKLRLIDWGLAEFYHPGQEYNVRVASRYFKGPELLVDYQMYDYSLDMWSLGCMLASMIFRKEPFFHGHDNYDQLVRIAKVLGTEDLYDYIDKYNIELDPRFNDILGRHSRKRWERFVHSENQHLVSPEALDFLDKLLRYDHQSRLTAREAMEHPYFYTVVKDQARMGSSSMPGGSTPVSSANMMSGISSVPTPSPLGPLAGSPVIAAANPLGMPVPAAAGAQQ
Protocol: as §1

Src = Src (Homo sapiens, UniProt P12931); assay: Kinase panel: Src; type: biochemical, human/mammalian; settings: compound at 10 μM, read-out: % of activity respect of the control
Sequence of Src (P12931 whole entry): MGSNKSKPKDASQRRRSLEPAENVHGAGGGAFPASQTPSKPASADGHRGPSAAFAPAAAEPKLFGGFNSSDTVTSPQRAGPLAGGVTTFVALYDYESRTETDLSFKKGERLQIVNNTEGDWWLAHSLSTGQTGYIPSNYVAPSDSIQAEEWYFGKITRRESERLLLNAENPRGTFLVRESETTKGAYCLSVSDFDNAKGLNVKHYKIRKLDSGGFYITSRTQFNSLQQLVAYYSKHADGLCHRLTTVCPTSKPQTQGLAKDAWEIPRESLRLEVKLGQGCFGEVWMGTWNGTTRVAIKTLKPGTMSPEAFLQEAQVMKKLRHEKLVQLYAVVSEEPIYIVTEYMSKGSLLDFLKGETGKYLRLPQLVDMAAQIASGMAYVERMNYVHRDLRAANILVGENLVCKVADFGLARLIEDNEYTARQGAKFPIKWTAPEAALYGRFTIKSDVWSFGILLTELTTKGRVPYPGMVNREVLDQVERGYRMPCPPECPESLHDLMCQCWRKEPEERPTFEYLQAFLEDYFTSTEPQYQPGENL
Protocol: as §1

EF2K = EF2K (Homo sapiens, UniProt O00418); assay: Kinase panel: EF2K; type: biochemical, human/mammalian; settings: compound at 10 μM, read-out: % of activity respect of the control
Protocol: as §1

MKK1 = MKK1 (Homo sapiens, UniProt Q02750); assay: Kinase panel: MKK1; type: biochemical, human/mammalian; settings: compound at 10 μM, read-out: % of activity respect of the control
Sequence of MKK1 (Q02750 whole entry): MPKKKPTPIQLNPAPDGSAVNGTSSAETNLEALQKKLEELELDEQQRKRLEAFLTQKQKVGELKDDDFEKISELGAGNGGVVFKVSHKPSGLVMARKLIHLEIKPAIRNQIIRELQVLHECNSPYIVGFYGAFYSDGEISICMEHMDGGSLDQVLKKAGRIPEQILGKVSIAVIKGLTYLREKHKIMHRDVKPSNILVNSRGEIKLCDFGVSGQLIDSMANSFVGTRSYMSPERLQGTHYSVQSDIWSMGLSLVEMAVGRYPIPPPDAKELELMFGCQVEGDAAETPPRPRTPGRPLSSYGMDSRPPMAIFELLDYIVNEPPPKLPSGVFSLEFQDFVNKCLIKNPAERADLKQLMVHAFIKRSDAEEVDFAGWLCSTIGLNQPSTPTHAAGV
Protocol: as §1

MST4 = MST4 (Homo sapiens, UniProt Q9P289); assay: Kinase panel: MST4; type: biochemical, human/mammalian; settings: compound at 10 μM, read-out: % of activity respect of the control
Sequence of MST4 (Q9P289 whole entry): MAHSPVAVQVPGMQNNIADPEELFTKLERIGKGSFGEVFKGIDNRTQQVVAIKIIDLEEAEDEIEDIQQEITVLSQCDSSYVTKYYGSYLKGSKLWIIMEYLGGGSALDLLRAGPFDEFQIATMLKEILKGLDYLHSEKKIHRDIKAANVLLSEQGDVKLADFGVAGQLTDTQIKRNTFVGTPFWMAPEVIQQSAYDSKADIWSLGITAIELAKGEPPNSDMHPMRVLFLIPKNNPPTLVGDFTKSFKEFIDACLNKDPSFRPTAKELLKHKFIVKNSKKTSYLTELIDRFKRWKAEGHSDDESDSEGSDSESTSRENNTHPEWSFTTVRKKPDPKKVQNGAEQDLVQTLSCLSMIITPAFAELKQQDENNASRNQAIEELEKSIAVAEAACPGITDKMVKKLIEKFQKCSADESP
Protocol: as §1

MNK2 = MNK2 (Homo sapiens, UniProt Q9HBH9); assay: Kinase panel: MNK2; type: biochemical, human/mammalian; settings: compound at 10 μM, read-out: % of activity respect of the control
Sequence of MNK2 (Q9HBH9 whole entry): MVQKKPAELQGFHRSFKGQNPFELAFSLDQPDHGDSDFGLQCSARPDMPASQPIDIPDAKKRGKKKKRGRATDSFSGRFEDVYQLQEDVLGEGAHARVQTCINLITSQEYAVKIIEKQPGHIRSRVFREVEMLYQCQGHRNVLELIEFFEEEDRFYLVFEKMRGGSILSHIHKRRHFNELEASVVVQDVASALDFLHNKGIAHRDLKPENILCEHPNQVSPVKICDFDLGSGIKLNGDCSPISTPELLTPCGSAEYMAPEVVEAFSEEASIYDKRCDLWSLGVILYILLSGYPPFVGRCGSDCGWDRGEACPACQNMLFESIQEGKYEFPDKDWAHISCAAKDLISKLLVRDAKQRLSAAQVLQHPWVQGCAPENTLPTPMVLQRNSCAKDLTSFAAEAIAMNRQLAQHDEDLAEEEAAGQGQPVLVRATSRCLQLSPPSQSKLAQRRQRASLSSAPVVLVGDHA
Protocol: as §1

CAMK1 = CAMK1 (Homo sapiens, UniProt Q14012); assay: Kinase panel: CAMK1; type: biochemical, human/mammalian; settings: compound at 10 μM, read-out: % of activity respect of the control
Sequence of CAMK1 (Q14012 whole entry): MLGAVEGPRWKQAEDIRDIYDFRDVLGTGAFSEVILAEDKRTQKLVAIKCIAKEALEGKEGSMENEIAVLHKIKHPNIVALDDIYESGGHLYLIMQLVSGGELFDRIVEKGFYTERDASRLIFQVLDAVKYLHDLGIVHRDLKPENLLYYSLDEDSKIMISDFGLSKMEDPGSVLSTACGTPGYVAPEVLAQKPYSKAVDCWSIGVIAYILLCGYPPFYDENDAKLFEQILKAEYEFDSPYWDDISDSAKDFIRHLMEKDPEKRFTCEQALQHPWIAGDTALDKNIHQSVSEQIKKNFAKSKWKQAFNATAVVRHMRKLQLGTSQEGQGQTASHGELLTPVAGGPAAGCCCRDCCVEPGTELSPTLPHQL
Protocol: as §1

TBK1 (DU12569) = biological target: T1, TBK1 (DU12569) (Homo sapiens, UniProt Q9UHD2); assay: Kinase panel: TBK1 (DU12569); type: biochemical, human/mammalian; settings: compound at 10 μM, read-out: % of activity respect of the control
T1 sequence (Q9UHD2 1-729): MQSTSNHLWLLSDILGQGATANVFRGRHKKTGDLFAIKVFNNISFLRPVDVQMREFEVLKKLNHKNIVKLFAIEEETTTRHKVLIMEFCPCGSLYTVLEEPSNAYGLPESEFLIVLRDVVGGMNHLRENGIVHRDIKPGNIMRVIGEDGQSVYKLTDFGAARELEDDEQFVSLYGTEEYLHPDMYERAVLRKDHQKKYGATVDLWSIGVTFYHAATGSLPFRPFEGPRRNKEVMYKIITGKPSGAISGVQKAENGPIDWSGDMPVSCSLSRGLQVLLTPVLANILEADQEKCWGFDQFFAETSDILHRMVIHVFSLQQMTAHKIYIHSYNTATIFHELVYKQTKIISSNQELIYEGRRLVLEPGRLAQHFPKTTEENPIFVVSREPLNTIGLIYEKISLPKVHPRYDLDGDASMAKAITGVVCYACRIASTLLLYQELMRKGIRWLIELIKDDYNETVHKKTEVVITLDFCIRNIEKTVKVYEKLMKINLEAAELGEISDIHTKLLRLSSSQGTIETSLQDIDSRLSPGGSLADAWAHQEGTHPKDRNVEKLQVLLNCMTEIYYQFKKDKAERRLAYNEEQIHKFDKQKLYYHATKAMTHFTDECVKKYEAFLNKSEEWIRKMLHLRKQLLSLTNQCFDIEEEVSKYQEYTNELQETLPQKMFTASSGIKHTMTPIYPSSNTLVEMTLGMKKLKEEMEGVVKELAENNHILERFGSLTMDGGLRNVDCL
Protocol: as §1

EPH-B3 = biological target: T2, EPH-B3 (Homo sapiens, UniProt P54753); assay: Kinase panel: EPH-B3; type: biochemical, human/mammalian; settings: compound at 10 μM, read-out: % of activity respect of the control
T2 sequence (P54753 34-998): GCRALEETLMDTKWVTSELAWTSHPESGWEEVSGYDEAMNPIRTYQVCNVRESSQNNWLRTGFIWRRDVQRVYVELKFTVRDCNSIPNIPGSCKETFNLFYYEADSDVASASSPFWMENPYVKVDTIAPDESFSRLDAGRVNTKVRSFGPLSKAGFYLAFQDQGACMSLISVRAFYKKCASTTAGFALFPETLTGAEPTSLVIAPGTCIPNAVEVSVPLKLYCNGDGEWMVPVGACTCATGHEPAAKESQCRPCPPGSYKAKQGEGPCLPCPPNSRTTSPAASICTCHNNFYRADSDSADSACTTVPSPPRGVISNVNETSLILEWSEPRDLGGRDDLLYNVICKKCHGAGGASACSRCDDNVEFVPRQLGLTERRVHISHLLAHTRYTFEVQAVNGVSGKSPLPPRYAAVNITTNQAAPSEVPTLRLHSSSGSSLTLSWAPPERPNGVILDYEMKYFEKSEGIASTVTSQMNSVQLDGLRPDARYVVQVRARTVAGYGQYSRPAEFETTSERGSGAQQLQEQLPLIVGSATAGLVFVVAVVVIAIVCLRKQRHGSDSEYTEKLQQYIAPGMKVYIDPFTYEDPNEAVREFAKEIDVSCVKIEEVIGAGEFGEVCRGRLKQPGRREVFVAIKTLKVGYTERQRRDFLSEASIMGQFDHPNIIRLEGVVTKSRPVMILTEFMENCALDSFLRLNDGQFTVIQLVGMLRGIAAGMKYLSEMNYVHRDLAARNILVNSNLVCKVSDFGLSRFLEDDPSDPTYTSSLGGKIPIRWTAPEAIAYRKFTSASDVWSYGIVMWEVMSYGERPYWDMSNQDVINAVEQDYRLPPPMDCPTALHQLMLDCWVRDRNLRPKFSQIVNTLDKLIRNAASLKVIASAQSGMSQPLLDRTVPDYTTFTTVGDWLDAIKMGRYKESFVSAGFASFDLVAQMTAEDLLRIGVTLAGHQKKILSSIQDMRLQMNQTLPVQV
Protocol: as §1

Sequence of JNK2 (P45984 whole entry): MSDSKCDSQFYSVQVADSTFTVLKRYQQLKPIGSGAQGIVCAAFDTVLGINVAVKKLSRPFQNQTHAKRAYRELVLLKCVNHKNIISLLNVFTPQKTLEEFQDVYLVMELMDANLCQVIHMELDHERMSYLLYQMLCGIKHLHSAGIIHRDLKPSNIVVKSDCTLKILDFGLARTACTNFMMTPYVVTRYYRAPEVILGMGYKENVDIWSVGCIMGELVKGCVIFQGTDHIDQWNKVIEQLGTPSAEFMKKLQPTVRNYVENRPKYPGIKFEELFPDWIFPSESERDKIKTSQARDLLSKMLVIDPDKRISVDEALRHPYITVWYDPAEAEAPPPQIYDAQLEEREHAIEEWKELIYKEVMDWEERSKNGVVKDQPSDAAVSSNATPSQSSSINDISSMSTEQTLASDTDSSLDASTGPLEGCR

| Structure (SMILES) | remaining activity at 10 µM (JNK2) [%] | remaining activity at 10 µM (MARK3) [%] | EC50 (T. b. brucei; Trypanosoma brucei) [µM] | remaining activity at 10 µM (RSK2) [%] | remaining activity at 10 µM (CK2) [%] | remaining activity at 10 µM (Src) [%] | remaining activity at 10 µM (EF2K) [%] | remaining activity at 10 µM (MKK1) [%] | remaining activity at 10 µM (MST4) [%] | remaining activity at 10 µM (MNK2) [%] | remaining activity at 10 µM (CAMK1) [%] | remaining activity at 10 µM (TBK1 (DU12569)) [%] | remaining activity at 10 µM (EPH-B3) [%] | EC50 (T. b. brucei) [µM] |
| --- | --- | --- | --- | --- | --- | --- | --- | --- | --- | --- | --- | --- | --- | --- |
| C[C@H](c1ccccc1)n1c(=O)[nH]c2ncc(-c3ccccc3)nc21 [Compound 14, (R)-6-Phenyl-1-(1-phenylethyl)-1H-imidazo[4,5-b]pyrazin-2(3H)-one] | 96 | 100 | 0.1 | 101 | 105 | 70 | 79 | 87 | 88 | 97 | 72 | 78 | 102 |  |
| O=c1[nH]c2ncc(-c3ccccc3CO)nc2n1C1CCCCC1 [Compound 28] |  |  | 0.05 |  |  |  |  |  |  |  |  |  |  | 0.046 |
| CC(c1ccccc1)n1c(=O)[nH]c2ncc(-c3ccc(F)cc3)nc21 (stereo not drawn) [Compound 1] | 104 | 110 | 0.08 | 110 | 107 | 80 | 93 | 106 | 90 | 106 | 87 | 95 | 113 |  |
| O=c1[nH]c2ncc(-c3ccc(F)cc3)nc2n1CC1CC1 [Compound 10] | 97 | 97 | 0.3 | 113 | 105 | 98 | 92 | 97 | 92 | 99 | 83 | 86 | 92 |  |
| O=c1[nH]c2ncc(-c3ccc(F)cc3)nc2n1C1CCCCC1 [Compound 12, 1-Cyclohexyl-6-(4-fluorophenyl)-1H-imidazo[4,5-b]pyrazin-2(3H)-one] | 93 | 98 | 0.03 | 104 | 111 | 94 | 98 | 62 | 100 | 103 | 88 | 90 | 110 |  |
